Data taken from article PMC10580313, “A Chemoproteomic Approach to Elucidate the Mechanism of Action of 6-Azasteroids with Unique Activity in Mycobacteria” (ACS Infectious Diseases, 2023).

Columns and labels:
Mm (BAA-535) = assay: BDQ potentiation MIC99 microbroth assay, Mm; assay type: cell-based, Mycobacterium marinum; conditions: for Fold ∆ of BDQ MIC, Mm: 6-azasteroid fixed at 20 μM, relative to BDQ MIC99 without azasteroid
Mtb = assay: MIC of 6-azasteroid alone, Mtb; assay type: cell-based, Mycobacterium tuberculosis; conditions: (MIC99 reported as micromolar)
THP-1 cells = assay: Cytotoxicity assay (Alamar Blue), THP-1; assay type: cell-based; conditions: 72 h, read-out: Mammalian Cell IC50, THP1
Mtb (CDC1551) = assay: BDQ potentiation MIC99 microbroth assay, Mtb; assay type: cell-based, Mycobacterium tuberculosis; conditions: 6-azasteroid fixed at 20 μM; relative to BDQ MIC99 without azasteroid
HepG2 cells = assay: Cytotoxicity assay (Alamar Blue), HepG2; assay type: cell-based, human; conditions: 72 h, read-out: Mammalian Cell IC50, HepG2
Mm = assay: MIC of 6-azasteroid alone, Mm; assay type: cell-based, Mycobacterium marinum; conditions: (micromolar)

Row | SMILES | Mtb MIC Alone (Mtb) | IC50 (THP-1 cells) | Fold ∆ of BDQ MIC, Mtb (Mtb (CDC1551)) | IC50 (HepG2 cells) | other results
1 | COc1nc2ccc(Br)cc2cc1[C@@H](c1ccccc1)[C@@](O)(CCN(C)C)c1cccc2ccccc12 [bedaquiline, reference compound] |  |  |  |  | MIC (Mm (BAA-535); Mycobacterium marinum, BAA535, read-out: Mm bedaquiline minimal inhibitory concentration, alone): 0.085 µM
2 | CC(C)(C)c1ccc(C(C)(C)C)c(NC(=O)C2CCC3C4CNC5=CC(=O)CC[C@]5(C)C4CC[C@]23C)c1 (some centres unmarked) [compound 1] | 40 µM | 17.7 µM | 16 fold |  | 
3 | CC(C)(C)c1ccc(C(C)(C)C)c(NC(=O)C2CCC3C4CNC5CC(=O)CC[C@]5(C)C4CC[C@]23C)c1 (some centres unmarked) [compound 3] | 10 µM | 14.2 µM |  | 16.9 µM | 
4 | CCCN1CC2C3CCC(C(=O)Nc4cc(C(C)(C)C)ccc4C(C)(C)C)[C@@]3(C)CCC2[C@@]2(C)CCC(=O)CC12 (some centres unmarked) [compound 4] | 20 µM | 73 µM |  |  | 
5 | CC(C)(C)c1ccc(C(F)(F)F)cc1NC(=O)C1CCC2C3CNC4=CC(=O)CC[C@]4(C)C3CC[C@]12C (some centres unmarked) [compound 5] | > 20 µM |  | 2 fold | 60 µM | 
6 | CCCN1CC2C3CCC(C(=O)Nc4cc(C(F)(F)F)ccc4C(C)(C)C)[C@@]3(C)CCC2[C@@]2(C)CCC(=O)C=C12 (some centres unmarked) [compound 6] |  |  |  | 71 µM | MIC Alone (Mm) (Mm): > 20 µM; Fold ∆ of BDQ MIC, Mm (Mm (BAA-535)): 3 fold
7 | CC(C)(C)c1ccc(C(F)(F)F)cc1NC(=O)C1CCC2C3CNC4CC(=O)CC[C@]4(C)C3CC[C@]12C (some centres unmarked) [compound 7] | 30 µM |  |  | 12.1 µM | 
8 | C[C@]12CCC3C(CN(CCCF)C4=CC(=O)CC[C@@]43C)C1CCC2C(=O)Nc1cc(C(F)(F)F)ccc1C(F)(F)F (some centres unmarked) [compound 8] |  |  |  | > 100 µM | MIC Alone (Mm) (Mm): > 20 µM; Fold ∆ of BDQ MIC, Mm (Mm (BAA-535)): 7 fold
9 | C[C@]12CCC(=O)CC1NCC1C2CC[C@]2(C)C(C(=O)Nc3cc(Br)ccc3Br)CCC12 (some centres unmarked) [compound 10] | 30 µM |  |  | 7.6 µM | 
10 | C[C@]12CCC(=O)CC1NCC1C2CC[C@]2(C)C(C(=O)NC34CC5CC(CC(C5)C3)C4)CCC12 (some centres unmarked) [compound 11] | > 80 µM |  |  | 89.3 µM | Fold ∆ of BDQ MIC, Mm (Mm (BAA-535)): 6 fold
11 | C[C@]12CCC3C(CNC4=CC(=O)CC[C@@]43C)C1CCC2C(=O)NC(c1ccc(F)cc1)c1ccc(F)cc1 (some centres unmarked) [compound 12] | 31 µM | 24.2 µM | 32 fold | 31.4 µM | Fold ∆ of BDQ MIC, Mm (Mm (BAA-535)): 7 fold
12 | CCCN1CC2C3CCC(C(=O)NC(c4ccc(F)cc4)c4ccc(F)cc4)[C@@]3(C)CCC2[C@@]2(C)CCC(=O)C=C12 (some centres unmarked) [compound 13] | > 20 µM |  | 128 fold | > 100 µM | 
13 | C[C@]12CCC(=O)CC1NCC1C2CC[C@]2(C)C(C(=O)NC(c3ccc(F)cc3)c3ccc(F)cc3)CCC12 (some centres unmarked) [compound 14] | 80 µM |  |  | 14.2 µM | 
14 | C[C@]12CCC3C(CNC4=CC(=O)CC[C@@]43C)C1CCC2C(=O)NC(c1ccc(F)cc1)c1ccc(C(F)(F)F)cc1 (some centres unmarked) [compound 15] | > 20 µM |  | 64 fold | 26 µM | 
15 | C[C@]12CCC(=O)CC1NCC1C2CC[C@]2(C)C(C(=O)NC(c3ccc(F)cc3)c3ccc(C(F)(F)F)cc3)CCC12 (some centres unmarked) [compound 17] | 20 µM | 15.6 µM |  | 10.1 µM | 
16 | C[C@]12CCC3C(CNC4=CC(=O)CC[C@@]43C)C1CCC2C(=O)NC(c1ccncc1)c1ccc(F)cc1 (some centres unmarked) [compound 18] | 15 µM |  | 4 fold | > 100 µM | 
17 | C[C@]12CCC3C(CNC4=CC(=O)CC[C@@]43C)C1CCC2C(=O)NC(c1ccc(F)cc1)c1ccc(OC(F)(F)F)cc1 (some centres unmarked) [compound 19] | > 20 µM |  | 32-64 fold | 58.4 µM | 
18 | C[C@]12CCC(=O)CC1NCC1C2CC[C@]2(C)C(C(=O)NC(c3ccc(F)cc3)c3ccc(OC(F)(F)F)cc3)CCC12 (some centres unmarked) [compound 20] | > 20 µM |  | > 32 fold | 5.7 µM | 

Row | SMILES | Mtb MIC Alone (Mtb) | IC50 (THP-1 cells) | Fold ∆ of BDQ MIC, Mtb (Mtb (CDC1551)) | IC50 (HepG2 cells) | other results
19 | C[C@]12CCC(O)CC1NCC1C2CC[C@]2(C)C(C(=O)NC(c3ccc(F)cc3)c3ccc(OC(F)(F)F)cc3)CCC12 (some centres unmarked) [compound 21] | > 20 µM |  | > 32 fold |  | 
20 | C[C@]12CCC3C(CNC4=CC(=O)CC[C@@]43C)C1CCC2C(=O)NC(c1ccc(OC(F)F)cc1)c1ccc(OC(F)F)cc1 (some centres unmarked) [compound 22] | > 20 µM | 25.7 µM | > 32 fold |  | 
21 | C[C@]12CCC(=O)CC1NCC1C2CC[C@]2(C)C(C(=O)NC(c3ccc(OC(F)F)cc3)c3ccc(OC(F)F)cc3)CCC12 (some centres unmarked) [compound 23] | 15 µM | 3.3 µM |  |  | 
22 | CCCN1CC2C3CCC(C(=O)NC(c4ccc(OC(F)F)cc4)c4ccc(OC(F)F)cc4)[C@@]3(C)CCC2[C@@]2(C)CCC(=O)CC12 (some centres unmarked) [compound 24] | 60 µM | > 100 µM |  |  | Fold ∆ of BDQ MIC, Mm (Mm (BAA-535)): 25.5 fold
23 | C[C@]12CCC3C(CNC4=CC(=O)CC[C@@]43C)C1CCC2C(=O)NC(c1ccc(C(F)(F)F)cc1)c1ccc(C(F)(F)F)cc1 (some centres unmarked) [compound 25] | 20 µM |  | 8 fold | 75.7 µM | 
24 | C[C@]12CCC(=O)CC1NCC1C2CC[C@]2(C)C(C(=O)NC(c3ccc(C(F)(F)F)cc3)c3ccc(C(F)(F)F)cc3)CCC12 (some centres unmarked) [compound 26] | 7.5 µM |  |  | 6 µM | 
25 | CCCN1CC2C3CCC(C(=O)NC(c4ccc(C(F)(F)F)cc4)c4ccc(C(F)(F)F)cc4)[C@@]3(C)CCC2[C@@]2(C)CCC(=O)CC12 (some centres unmarked) [compound 27] | 20 µM | > 100 µM | 2 fold |  | 
26 | C[C@]12CCC3C(CNC4=CC(=O)CC[C@@]43C)C1CCC2C(=O)NC(c1ccc(OC(F)(F)F)cc1)c1ccc(OC(F)(F)F)cc1 (some centres unmarked) [compound 28] | > 20 µM | 12.8 µM | > 32 fold |  | 
27 | C[C@]12CCC(=O)CC1NCC1C2CC[C@]2(C)C(C(=O)NC(c3ccc(OC(F)(F)F)cc3)c3ccc(OC(F)(F)F)cc3)CCC12 (some centres unmarked) [compound 29] | 5 µM | 4.5 µM |  |  | 
28 | C[C@]12CCC(N)CC1NCC1C2CC[C@]2(C)C(C(=O)NC(c3ccc(OC(F)(F)F)cc3)c3ccc(OC(F)(F)F)cc3)CCC12 (some centres unmarked) [compound 30] | 80 µM |  |  | 2.7 µM | 
29 | CC(=O)N1CC2C3CCC(C(=O)NC(c4ccc(OC(F)(F)F)cc4)c4ccc(OC(F)(F)F)cc4)[C@@]3(C)CCC2[C@@]2(C)CCC(=O)CC12 (some centres unmarked) [compound 31] | > 80 µM |  | 1 fold | > 100 µM | Fold ∆ of BDQ MIC, Mm (Mm (BAA-535)): 3.5 fold
30 | C[C@]12CCC(O)CC1NCC1C2CC[C@]2(C)C(C(=O)NC(c3ccc(OC(F)(F)F)cc3)c3ccc(OC(F)(F)F)cc3)CCC12 (some centres unmarked) [compound 32] | 5 µM |  |  | 5.75 µM | 
31 | CC12CCC(=O)C=C1CCC1C2CCC2(C)C(C(=O)NC(c3ccc(OC(F)(F)F)cc3)c3ccc(OC(F)(F)F)cc3)CCC12 (centres unmarked) [compound 33] | > 80 µM |  | 1 fold | > 100 µM | 
32 | CC12CCC(=O)CC1CCC1C2CCC2(C)C(C(=O)NC(c3ccc(OC(F)(F)F)cc3)c3ccc(OC(F)(F)F)cc3)CCC12 (centres unmarked) [compound 34] | > 80 µM |  | 1 fold | > 100 µM | 
33 | CCCN1CC2C3CCC(C(=O)NC(c4ccc(OC(F)(F)F)cc4)c4ccc(OC(F)(F)F)cc4)[C@@]3(C)CCC2[C@@]2(C)CCC(=O)C=C12 (some centres unmarked) [compound 36] | > 40 µM | > 100 µM |  |  | Fold ∆ of BDQ MIC, Mm (Mm (BAA-535)): 1.6 fold
34 | CN(C)CCN1CC2C3CCC(C(=O)NC(c4ccc(OC(F)(F)F)cc4)c4ccc(OC(F)(F)F)cc4)[C@@]3(C)CCC2[C@@]2(C)CCC(=O)CC12 (some centres unmarked) [compound 37] | 5 µM | 4.1 µM |  |  | 
35 | C[C@]12CCC3C(CN(CC4CC4)C4CC(=O)CC[C@]34C)C1CCC2C(=O)NC(c1ccc(OC(F)(F)F)cc1)c1ccc(OC(F)(F)F)cc1 (some centres unmarked) [compound 38] | 80 µM | 10 µM |  |  | 
36 | C#CCCC(=O)Nc1ccc(C(=O)c2ccc(NC(=O)C3CCC4C5CNC6=CC(=O)CC[C@]6(C)C5CC[C@]34C)cc2)cc1 (stereo partly drawn) [compound 44, 17β-[N-[4-(4-Aminobenzoyl)phenyl]pent-4-ynamide]-6-azaandrost-4-en-3-one] |  |  |  |  | BDQ potentiation activity in Mm (Mm (BAA-535); photoaffinity probes): showed BDQ potentiation activity
